These results are taken from patent US5023084A, “Transdermal estrogen/progestin dosage unit, system and process” (Rutgers, The State University of New Jersey, priority 1988, dated 1991).

The structures appear in SMILES notation.

A short description of the first data set: Permeation of estradiol and levonorgestrel across adult male human cadaver skin. The class given is in vitro ADME.
Conditions: not given
Here is the method: Layer 2 contains levonorgestrel and layer 4 contains 17-beta-estradiol.
The primary and secondary enhancing agents are incorporated into levonorgestrel containing layer 2. The amounts of primary and secondary enhancing agents specified in Table 16 are used in making dosage units.
Permeation rates (mcg/sq. cm/hr±S.D.) are determined using the in vitro procedure of Y. W. Chien et al. identified in Example 1 using human cadaver skin.
As to `CC(=O)Oc1c(C)c(C)c2c(c1C)CCC(C)(CCCC(C)CCCC(C)CCCC(C)C)O2` (racemic) [dl-alpha-Tocopherol Acetate], the “Estradiol/Levonorgestrel Rate/Ratio” value was 1.0 (0.07); the “Permeation Rate, Estradiol” value is 0.18 (0.024) mcg/sq. cm/hr; the “Permeation Rate, Levonorgestrel” value was 0.182 (0.029) mcg/sq. cm/hr.

On to `Cc1c(C)c2c(c(C)c1O)CCC(C)(CCCC(C)CCCC(C)CCCC(C)C)O2` (racemic) [dl-alpha-Tocopherol], for which the “Estradiol/Levonorgestrel Rate/Ratio” value is given as 1.6 (0.10); the “Permeation Rate, Estradiol” value is recorded as 0.20 (0.031) mcg/sq. cm/hr; the “Permeation Rate, Levonorgestrel” value is recorded as 0.127 (0.021) mcg/sq. cm/hr.

With `CC1=C(/C=C/C(C)=C/C=C/C(C)=C/C(=O)O)C(C)(C)CCC1` [Retinoic Acid, retinoic acid], the “Estradiol/Levonorgestrel Rate/Ratio” value is on record as 1.4 (0.16); the “Permeation Rate, Estradiol” value is 0.22 (0.033) mcg/sq. cm/hr; the “Permeation Rate, Levonorgestrel” value was 0.159 (0.024) mcg/sq. cm/hr.

As for `CC1=C(/C=C/C(C)=C/C=C/C(C)=C/CO)C(C)(C)CCC1` [Retinol, retinol], the “Estradiol/Levonorgestrel Rate/Ratio” value is reported as 1.5 (0.11); the “Permeation Rate, Estradiol” value is on record as 0.21 (0.040) mcg/sq. cm/hr; the “Permeation Rate, Levonorgestrel” value was 0.141 (0.019) mcg/sq. cm/hr.

For `CCCCCCCCCCCCCCCC(=O)OC/C=C(C)/C=C/C=C(C)/C=C/C1=C(C)CCCC1(C)C` [Retinyl Palmitate, retinyl palmitate], the “Estradiol/Levonorgestrel Rate/Ratio” value is on record as 1.0 (0.13); the “Permeation Rate, Estradiol” value is 0.18 (0.030) mcg/sq. cm/hr; the “Permeation Rate, Levonorgestrel” value is recorded as 0.176 (0.027) mcg/sq. cm/hr.

Take `CCCCCCCCCCO` [n-Decyl Alcohol, n-decyl alcohol]: the “Estradiol/Levonorgestrel Rate/Ratio” value was 2.4 (0.21).

The data set is the same for the next values; noted with them: dosage unit with […] W/W n-decyl alcohol, with or without 5.0% secondary enhancer; S.D. in parentheses.
Consider `CCCCCCCCCCO` [n-Decyl Alcohol, n-decyl alcohol], for which the “Permeation Rate, Estradiol” value was 0.19 (0.031) mcg/sq. cm/hr and the “Permeation Rate, Levonorgestrel” value is recorded as 0.080 (0.017) mcg/sq. cm/hr.

Assay in the next data set: not given
To be noted: oral; cited from earlier work.
As to `C[C@]12CC[C@@H]3c4ccc(O)cc4CC[C@H]3[C@@H]1CC[C@@H]2O` [17-beta-estradiol], the “17-beta-estradiol destroyed when taken orally” value is “over 90%”.
